Measured values as given in ChEMBL document CHEMBL3046060, “Synthesis, molecular docking study, and anticancer activity of triaryl-1,2,4-oxadiazole” (Med Chem Res, 2013).

Tests used:
K562 [1] = assay: Cytotoxicity against Homo sapiens (human) K562 cells at 50 uM after 24 hr by MTT assay; type: functional
MCF7 [2] = assay: cells; conditions: Homo sapiens, MCF7, 24 h
Description: Cytotoxicity against Homo sapiens (human) MCF7 cells assessed as inhibition of cell proliferation after 24 hr by MTT assay

K562 [3] = assay: Cytotoxicity against Homo sapiens (human) K562 cells assessed as inhibition of cell proliferation after 24 hr by MTT assay; type: functional, cell-based; conditions: K562, 24 h
MCF7 [4] = assay: Cytotoxicity against Homo sapiens (human) MCF7 cells at 50 uM after 24 hr by MTT assay; type: functional

SMILES	Activity (K562 [1])	IC50 (MCF7 [2])	IC50 (K562 [3])	Activity (MCF7 [4])
Clc1ccc(C2=NOC(c3ccc(Cl)cc3)N2c2ccccc2)cc1 (centres undefined)	>50%	10.1 µM	22.2 µM	>50%
COc1cccc2c1C(=O)c1c(O)c3c(c(O)c1C2=O)C[C@@](O)(C(=O)CO)C[C@@H]3O[C@H]1C[C@H](N)[C@H](O)[C@H](C)O1 [DOXORUBICIN]		> 100 µM	4.49 µM	
Clc1ccc(C2=NOC(c3ccc(Cl)cc3)N2c2ccc(Cl)cc2)cc1 (centres undefined)	>50%	22.6 µM	51.2 µM	>50%
CC(=O)O[C@H]1C(=O)[C@@]2(C)[C@H]([C@H](OC(=O)c3ccccc3)[C@]3(O)C[C@H](OC(=O)[C@H](O)[C@@H](NC(=O)c4ccccc4)c4ccccc4)C(C)=C1C3(C)C)[C@]1(OC(C)=O)CO[C@@H]1C[C@@H]2O [PACLITAXEL]			> 100 µM	
Fc1ccc(C2ON=C(c3ccc(Cl)cc3)N2c2ccccc2)cc1 (centres undefined)	>50%	6.5 µM	21.7 µM	>50%
Clc1ccc(C2=NOC(c3ccccc3)N2c2ccccc2)cc1 (centres undefined)	>50%	23.7 µM	97 µM	>50%
